Test results from patent US4906467A, “Novel, long-duration treatment for glaucoma” (priority 1988, dated 1990).
Entries after “also recorded” stand apart in the source; their conditions may differ.

Legend:
[1] = rabbit, in vivo
[2] = tested on: RABBIT INTRAOCULAR PRESSURE; test: Effect of topical 12(R)-HETE on rabbit intraocular pressure (pneumotometer); type: in vivo; settings: for intraocular pressure, difference from baseline (mean ± SEM): n = 6
Description: A solution of 12(R)-HETE was prepared by dissolving 50 μg 12(R)-HETE in 1 ml ethanol and diluting to give aliquots containing 0.5 or 1.0 μg 12(R)-HETE in each of several containers. These could be frozen at -78° C. with or without ethanol. Before use, aliquots were warmed, ethanol was removed (if necessary) and sterile phosphate buffered saline (PBS) was added to give a concentration of 0.01 mg 12(R)-HETE/ml PBS. Rabbits were treated by administering 10 to 50 μl of 12(R)-HETE in PBS topically to the each eye of a 1.5 kg rabbit. Control rabbits were treated with PBS alone. Intraocular pressure was measured on a conventional pneumotometer, using a sensor size appropriate for the eye to be measured.
The pressure in each eye of the rabbits was measured several times before beginning the experiment to establish a baseline. Pressure was measured again just after administration of the test compound, then every 30 minutes for 180 minutes, daily for six days, and again on days 9 and 11. […] Table 1 illustrates the mean and standard error of the pressure difference from baseline in six animals treated with 0.5 μg 12(R)-HETE (per eye) compared with three controls, only one of which was tested after the first day.

Na^+ -K^+ -ATPases = settings: cited from earlier work
[3] = tested on: corneal epithelial Na^+ -K^+ -ATPase; settings: corneal epithelium, in vitro; cited from earlier work
[4] = Ocular side effects after topical administration in vivo (corneal thickness, clarity, side effects)
intraocular pressure [5] = test: Intraocular pressure after topical 12(R)-HETE (general statement); type: in vivo; settings: effective dose
[6] = tested on: ciliary body Na^+ -K^+ -ATPase; settings: cited from earlier work
intraocular pressure [7] = settings: cited from earlier work; for effect on intraocular pressure: in vivo
aqueous humor formation = settings: in vivo; cited from earlier work
[8] = in vivo; cited from earlier work

Structure (SMILES): CCCCC/C=C\C[C@@H](O)/C=C/C=C\C/C=C\CCC[14C](=O)O [1-(^14 C)-12(R)-HETE]
- eye tissues with highest levels of 12(R)-HETE and its metabolites [1]: The highest levels were found in the cornea, ciliary bodies and trabecular meshwork

Structure (SMILES): CCCCCC=CC[C@@H](O)C=CC=CCC=CCCCC(=O)O [12(R)-HETE, 12(R)-hydroxy-eicosa-5,8,10,14-tetraenoic acid]
- intraocular pressure, difference from baseline (mean ± SEM) ([2]; 0 min., 0.5 μg per eye topical): -0.6 ± 0.9 mm Hg
- onset and duration of intraocular pressure drop ([2]; 0.5 μg per eye, rabbits, Table 1): short onset, sustained pressure drop
- intraocular pressure in test animals compared with control animals ([2]; 0.5 μg per eye, vs PBS controls): significantly below the pressure in control animals at all times after administration of the test drug
- intraocular pressure, difference from baseline (mean ± SEM) ([2]; 30 min, 0.5 μg per eye topical): -3.5 ± 1.9 mm Hg
- intraocular pressure, difference from baseline (mean ± SEM) ([2]; 60 min, 0.5 μg per eye topical): -5.6 ± 1.4 mm Hg
- intraocular pressure, difference from baseline (mean ± SEM) ([2]; 90 min, 0.5 μg per eye topical): -5.6 ± 1.3 mm Hg
- intraocular pressure, difference from baseline (mean ± SEM) ([2]; 120 min, 0.5 μg per eye topical): -7.2 ± 1.6 mm Hg
- intraocular pressure, difference from baseline (mean ± SEM) ([2]; 150 min, 0.5 μg per eye topical): -4.7 ± 2.8 mm Hg
- intraocular pressure, difference from baseline (mean ± SEM) ([2]; 180 min, 0.5 μg per eye topical): -4.1 ± 2.2 mm Hg
- intraocular pressure, difference from baseline (mean ± SEM) ([2]; 2 days, 0.5 μg per eye topical): -3.2 ± 2.1 mm Hg
- intraocular pressure, difference from baseline (mean ± SEM) ([2]; 3 days, 0.5 μg per eye topical): -4.2 ± 1.2 mm Hg
- intraocular pressure, difference from baseline (mean ± SEM) ([2]; 4 days, 0.5 μg per eye topical): -4.2 ± 1.0 mm Hg
- intraocular pressure, difference from baseline (mean ± SEM) ([2]; 5 days, 0.5 μg per eye topical): -5.2 ± 2.1 mm Hg
- intraocular pressure, difference from baseline (mean ± SEM) ([2]; 6 days, 0.5 μg per eye topical): -6.0 + 1.2 mm Hg
- intraocular pressure, difference from baseline (mean ± SEM) ([2]; 9 days, 0.5 μg per eye topical): -7.4 ± 1.7 mm Hg
- intraocular pressure, difference from baseline (mean ± SEM) ([2]; 11 days, 0.5 μg per eye topical): -2.9 ± 1.5 mm Hg
- intraocular pressure, difference from baseline (mean ± SEM) ([2]; Base (before dosing), 0.5 μg per eye, baseline 25.6 mm): 0.0 ± 1.4 mm Hg
- inhibition of Na+-K+-ATPases (Na^+ -K^+ -ATPases): inhibitor of Na^+ -K^+ -ATPases
- inhibition of Na+-K+-ATPase [3]: only the R isomer exhibits a significant inhibition of enzyme activity; also recorded: inhibit Na^+ -K^+ -ATPase isolated from the ciliary body and the corneal epithelium; also recorded: inhibit Na^+ -K^+ -ATPase in the corneal epithelium in vitro
- untoward side effects ([4]; doses up to 1 μg per eye): no untoward side effects have been observed
- corneal clarity ([4]; topical, in vivo): no loss of clarity
- corneal thickness ([4]; topical, in vivo): no increase in corneal thickness
- other observable side effects ([4]; topical, in vivo): no other observable side effects
- duration of intraocular pressure decrease (intraocular pressure [5]): a decrease in intraocular pressure for a period of several days; also recorded: remains depressed for several days
- onset of intraocular pressure drop (intraocular pressure [5]): drops within a few minutes
- inhibition of Na+-K+-ATPase [6]: only the R isomer exhibits a significant inhibition of enzyme activity; also recorded: inhibit Na^+ -K^+ -ATPase isolated from the ciliary body

Structure (SMILES): CCCCCC=CC[C@H](O)C=CC=CCC=CCCCC(=O)O [12(S)-HETE, reference compound]
- inhibition of Na+-K+-ATPase [3]: only the R isomer exhibits a significant inhibition of enzyme activity
- inhibition of Na+-K+-ATPase [6]: only the R isomer exhibits a significant inhibition of enzyme activity

Structure (SMILES): CC(=O)OC1CN2CCC1CC2 (stereo not drawn) [Aceclidine]
- effectiveness in reducing intraocular pressure compared with pilocarpine (intraocular pressure [7]; glaucoma): approximately as effective as pilocarpine in reducing intraocular pressure

Structure (SMILES): CNC[C@H](O)c1ccc(O)c(O)c1 [Epinephrine]
- effect on production of aqueous humor (aqueous humor formation): decreases production of aqueous humor
- effect on intraocular pressure (intraocular pressure [7]): reducing the intraocular pressure

Structure (SMILES): CC[C@@H]1C(=O)OC[C@@H]1Cc1cncn1C [Pilocarpine]
- effect on pupil size / ciliary body tone / vision [8]: pupillary constriction, spasm of accomodation
- effect on intraocular pressure (intraocular pressure [7]): a transitory rise in intraocular pressure, followed by a more persistent fall

Structure (SMILES): CC(C)(C)NC[C@H](O)COc1nsnc1N1CCOCC1 [Timolol]
- side effects [8]: The side effects are minimal, although systemic absorption of the drug can occur, leading to slowing of the heart
- effect on production of aqueous humor (aqueous humor formation): appears to act by reducing the production of aqueous humor
- duration of beneficial effect (intraocular pressure [7]; glaucoma): about 7 hours
- effect on intraocular pressure (intraocular pressure [7]): effective in reducing intraocular pressure

Structure (SMILES): CC(=O)Nc1nnc(S(N)(=O)=O)s1 [acetazolamide]
- effect on production of aqueous humor (aqueous humor formation): reduces the rate of aqueous humor formation
- effect on intraocular pressure (intraocular pressure [7]): lowering intraocular pressure in patients with glaucoma

Structure (SMILES): CNCC(O)c1ccc(OC(=O)C(C)(C)C)c(OC(=O)C(C)(C)C)c1 (stereo not drawn) [dipivalyl epinephrine]
- effect on production of aqueous humor (aqueous humor formation): decreases production of aqueous humor
- effect on intraocular pressure (intraocular pressure [7]): reducing the intraocular pressure

Structure (SMILES): C[C@@H]1O[C@@H](O[C@H]2C[C@@H](O)[C@]3(CO)[C@H]4[C@H](O)C[C@]5(C)[C@@H](C6=CC(=O)OC6)CC[C@]5(O)[C@@H]4CC[C@]3(O)C2)[C@H](O)[C@H](O)[C@H]1O [ouabain]
- side effects [8]: severe side effects including keratitis and inflammation of the cornea
- inhibition of Na+-K+-ATPases (Na^+ -K^+ -ATPases): inhibit Na^+ -K^+ -ATPases
- effect on intraocular pressure (intraocular pressure [7]): decrease intraocular pressure
